The results in this text go back to US9750747B2, “Treatments involving eslicarbazepine acetate or eslicarbazepine” (BAIL-PORTELA & CA, S.A., priority 2011, dated 2017).

Holding throughout (format): cell-based
Test [1] addresses T1, human T-type calcium channels hCav3.2 (Homo sapiens, UniProt O95180).
T1 construct: expressed in transfected cells; host or cells: HEK 293 cells (European Collection of Animal Cell Culture)
Put plainly: whole-cell patch-clamp, calcium peak currents in stably transfected HEK 293 cells. Details: blocked calcium peak currents by: unit not given here. The conditions noted are these: for Relative current amplitude (%): hCav3.2 in HEK 293 cells; for IC50: two site binding model. Here is the method: A study was carried out to determine the effect of eslicarbazepine.
Cells were stably transfected with hCav3.2 cDNA.
Calcium inward currents were measured upon depolarization of the cell membrane to −25 mV for 50 ms from a holding potential of −80 mV. This voltage protocol was run at intervals of 10 s until stabilization of evoked hCav3.2 currents. […] Vehicle was either bath solution or 0.2% DMSO.
Analysis of variance (ANOVA) with post test multisample comparison (Dunnett) was conducted with GraphPad Prism 4 Software. IC50 were calculated with the equation: […]
On the technique in general: Patch clamp records ionic current or voltage across a cell membrane.

A further test concerns the target T2, α1β2γ2 GABA receptors (Homo sapiens, UniProt P14867+P18507+P47870).
T2 construct: host or cells: Ltk cells, expression induced with dexamethasone
Put plainly: whole-cell patch-clamp, sub-maximal GABA inward currents in stably transfected Ltk cells. The protocol: (§1) Carbamazepine (CBZ) aggravates absence seizures in ‘generalized absence epilepsy rats from. Strasbourg’. One putative mechanism for the aggravation is through its reported potentiation of GABAA currents. A study was carried out to determine the effect of eslicarbazepine, R-licarbazepine and carbamazepine on sub-maximal GABA currents in Ltk cells stably expressing α1β2γ2, α2β2γ2, α3β2γ2 or α5β2γ2 GABA-receptors. The whole-cell patch-clamp technique was used to investigate the effects of the test compounds on GABAA receptors.
(§2) Used Ltk cells were stably transfected with recombinant GABAA cDNAs: α1β2γ2, α2β2γ2, α3β2γ2 or α5β2γ2 (B'SYS GmbH, Switzerland). […] For the electrophysiological experiments cells were cultivated, at a density that enabled single cells to be measured, in medium without antibiotics or antimycotics. Cells were tested 24-48 hours following induction of transgene expression with dexamethasone.
(§3) The whole-cell patch clamp recordings from transfected Ltk cells (voltage-clamped at a holding potential of −80 mV) were made using a EPC-7, HEKA Electronics amplifier. GABA inward-currents were measured upon application of 1 or 2 μM GABA to patch-clamped cells (at an EC5).
(§4) Analysis of Variance (ANOVA) with post test multisample comparison (Dunnett) was conducted with GraphPad Prism 4 Software.

The target of a further test is T3, α2β2γ2 GABA receptors (Homo sapiens, UniProt P18507+P47869+P47870).
T3 construct: host or cells: Ltk cells, expression induced with dexamethasone
T3 sequence (P47869 29-451): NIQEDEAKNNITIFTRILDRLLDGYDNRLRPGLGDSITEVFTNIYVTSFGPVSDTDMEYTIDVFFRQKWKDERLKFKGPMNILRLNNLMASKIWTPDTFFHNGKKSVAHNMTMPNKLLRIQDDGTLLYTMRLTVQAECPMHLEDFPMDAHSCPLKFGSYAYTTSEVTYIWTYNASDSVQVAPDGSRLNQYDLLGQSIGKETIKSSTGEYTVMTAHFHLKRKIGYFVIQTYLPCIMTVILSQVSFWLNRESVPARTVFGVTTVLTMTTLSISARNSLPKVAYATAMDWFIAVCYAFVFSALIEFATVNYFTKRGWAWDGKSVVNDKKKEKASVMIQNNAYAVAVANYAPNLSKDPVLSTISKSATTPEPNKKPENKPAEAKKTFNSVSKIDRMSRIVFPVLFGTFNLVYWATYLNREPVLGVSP
T3 sequence (P47870 25-512 limits assumed): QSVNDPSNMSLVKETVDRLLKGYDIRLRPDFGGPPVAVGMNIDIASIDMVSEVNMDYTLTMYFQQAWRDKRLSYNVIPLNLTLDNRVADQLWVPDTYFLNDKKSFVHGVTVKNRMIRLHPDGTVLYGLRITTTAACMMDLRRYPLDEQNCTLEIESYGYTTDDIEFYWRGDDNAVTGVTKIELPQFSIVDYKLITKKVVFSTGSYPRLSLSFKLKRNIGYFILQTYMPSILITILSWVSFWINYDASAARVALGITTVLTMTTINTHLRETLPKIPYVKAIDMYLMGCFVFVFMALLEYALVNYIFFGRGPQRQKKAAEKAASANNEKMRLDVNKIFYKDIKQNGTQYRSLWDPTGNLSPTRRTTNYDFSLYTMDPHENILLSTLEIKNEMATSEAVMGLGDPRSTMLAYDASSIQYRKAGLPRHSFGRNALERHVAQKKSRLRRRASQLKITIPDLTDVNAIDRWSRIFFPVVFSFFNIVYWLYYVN
T3 sequence (P18507 40-475): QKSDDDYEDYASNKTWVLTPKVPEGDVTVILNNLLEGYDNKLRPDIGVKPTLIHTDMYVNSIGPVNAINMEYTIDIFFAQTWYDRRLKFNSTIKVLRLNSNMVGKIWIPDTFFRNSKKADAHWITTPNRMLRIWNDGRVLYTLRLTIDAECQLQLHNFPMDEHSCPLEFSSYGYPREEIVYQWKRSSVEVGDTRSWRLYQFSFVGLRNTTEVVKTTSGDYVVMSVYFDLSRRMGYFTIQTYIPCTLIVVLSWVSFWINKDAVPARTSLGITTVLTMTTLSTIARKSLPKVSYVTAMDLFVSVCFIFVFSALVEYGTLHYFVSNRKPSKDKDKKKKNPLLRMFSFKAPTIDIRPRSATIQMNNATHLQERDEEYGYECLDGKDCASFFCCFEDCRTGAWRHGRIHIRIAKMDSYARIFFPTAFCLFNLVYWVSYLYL
The description is as above. The protocol: as §1, §2, §3, §4

A further test addresses T4, α5β2γ2 GABA receptors (Homo sapiens, UniProt P18507+P31644+P47870).
T4 construct: host or cells: Ltk cells, expression induced with dexamethasone
The description is as above. Here is the method:
as §1, §2, §3, §4

Another test concerns the target T5, α3β2γ2 GABA receptors (Homo sapiens, UniProt P18507+P34903+P47870).
T5 construct: host or cells: Ltk cells, expression induced with dexamethasone
The description is as above. Here is the method:
as §1, §2, §3, §4

Test [2] has as its system α1β2γ2, α2β2γ2, α3β2γ2 or α5β2γ2 GABA-receptors. Put plainly: overall effect on sub-maximal GABA currents (summary of Example 1). To be noted: Ltk cells, all four receptor subtypes. Here is the method: as §1
Used Ltk cells were stably transfected with recombinant GABAA cDNAs: α1β2γ2, α2β2γ2, α3β2γ2 or α5β2γ2 (B'SYS GmbH, Switzerland). Cells were maintained in a humidified atmosphere (95% relative humidity) with 5% CO2 and were grown in D-MEM/F-12 (1×, liquid, with GlutaMax 1) supplemented with 9% foetal bovine serum and 0.9% Penicillin/Streptomycin solution (Gibco BRL). For the electrophysiological experiments cells were cultivated, at a density that enabled single cells to be measured, in medium without antibiotics or antimycotics. Cells were tested 24-48 hours following induction of transgene expression with dexamethasone.
Cells were continuously perfused with bath solution (NaCl 137 mM, KCl 4 mM, CaCl2 1.8 mM, MgCl2 1 mM, D-Glucose 10 mM HEPES 10 mM, pH 7.4). […] GABA inward-currents were measured upon application of 1 or 2 μM GABA to patch-clamped cells (at an EC5). […]

Where [3] appears, read: high affinity fit, read-out: hCav3.2 IC50 (μM) High affinity.
Setting [4] is: low affinity fit, read-out: hCav3.2 IC50 (μM) Low affinity.
The mark [5] stands for this setting: 50 μM with GABA at EC5, Ltk cells, Table 2.
Setting [6] is: 100 μM with GABA at EC5, Ltk cells, Table 2.
[7] abbreviates: 250 μM with GABA at EC5, Ltk cells, Table 2.
The mark [8] stands for this setting: 500 μM with GABA at EC5, Ltk cells, Table 2.
[9] abbreviates: 1000 μM with GABA at EC5, Ltk cells, Table 2.
The mark [10] stands for this setting: 50 μM with GABA at EC5, Ltk cells, Table 1.
Where [11] appears, read: 100 μM with GABA at EC5, Ltk cells, Table 1.
Setting [12] is: 250 μM with GABA at EC5, Ltk cells, Table 1.
The mark [13] stands for this setting: 500 μM with GABA at EC5, Ltk cells, Table 1.

Structures are written as SMILES. Read-outs that look alike come from different tables or passages of the source.

T5 sequence (P34903 29-492): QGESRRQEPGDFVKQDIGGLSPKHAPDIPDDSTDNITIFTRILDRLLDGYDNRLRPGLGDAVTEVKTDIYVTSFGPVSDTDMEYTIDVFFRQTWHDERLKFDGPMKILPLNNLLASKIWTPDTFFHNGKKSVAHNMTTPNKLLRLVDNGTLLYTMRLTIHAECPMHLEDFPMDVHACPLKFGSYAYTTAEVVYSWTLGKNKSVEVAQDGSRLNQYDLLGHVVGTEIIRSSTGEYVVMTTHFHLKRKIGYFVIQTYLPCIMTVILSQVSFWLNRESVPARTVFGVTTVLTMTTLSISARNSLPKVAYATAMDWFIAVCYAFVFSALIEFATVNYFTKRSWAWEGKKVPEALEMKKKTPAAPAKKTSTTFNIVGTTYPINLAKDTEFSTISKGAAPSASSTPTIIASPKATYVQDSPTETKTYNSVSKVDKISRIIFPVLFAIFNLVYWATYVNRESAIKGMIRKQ
T5 sequence (P47870 25-512 limits assumed): as the sequence (P47870 25-512 limits assumed) above
T5 sequence (P18507 40-475): as the sequence (P18507 40-475) above
T2 sequence (P14867 28-456): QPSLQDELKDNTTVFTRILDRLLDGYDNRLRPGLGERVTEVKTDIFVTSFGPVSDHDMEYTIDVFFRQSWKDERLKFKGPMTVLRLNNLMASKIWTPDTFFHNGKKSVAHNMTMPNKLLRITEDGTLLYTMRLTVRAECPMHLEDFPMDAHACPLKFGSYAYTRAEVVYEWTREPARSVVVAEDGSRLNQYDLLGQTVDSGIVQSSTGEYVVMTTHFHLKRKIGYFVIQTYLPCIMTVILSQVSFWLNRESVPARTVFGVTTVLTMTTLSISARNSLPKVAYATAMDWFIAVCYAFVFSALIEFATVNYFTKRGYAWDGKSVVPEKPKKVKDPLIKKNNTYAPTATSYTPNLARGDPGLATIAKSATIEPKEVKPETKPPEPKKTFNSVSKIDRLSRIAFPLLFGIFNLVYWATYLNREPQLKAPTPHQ
T2 sequence (P47870 25-512 limits assumed): as the sequence (P47870 25-512 limits assumed) above
T2 sequence (P18507 40-475): as the sequence (P18507 40-475) above
T4 sequence (P31644 32-462): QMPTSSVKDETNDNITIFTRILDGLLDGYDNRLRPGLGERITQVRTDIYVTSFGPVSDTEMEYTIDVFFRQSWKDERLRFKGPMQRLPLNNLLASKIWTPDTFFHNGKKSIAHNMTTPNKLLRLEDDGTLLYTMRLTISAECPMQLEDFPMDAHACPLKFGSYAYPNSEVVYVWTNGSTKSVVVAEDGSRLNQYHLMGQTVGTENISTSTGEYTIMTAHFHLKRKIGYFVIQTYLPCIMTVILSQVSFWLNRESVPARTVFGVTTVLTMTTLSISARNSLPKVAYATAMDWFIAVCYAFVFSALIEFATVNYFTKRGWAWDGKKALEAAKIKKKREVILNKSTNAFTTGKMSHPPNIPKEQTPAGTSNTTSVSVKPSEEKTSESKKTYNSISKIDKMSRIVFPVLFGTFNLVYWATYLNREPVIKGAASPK
T4 sequence (P47870 25-512 limits assumed): as the sequence (P47870 25-512 limits assumed) above
T4 sequence (P18507 40-475): as the sequence (P18507 40-475) above

The term IC50 denotes the concentration at which inhibition is half-maximal. For `NC(=O)N1c2ccccc2C=Cc2ccccc21` [Carbamazepine, 5H-dibenzo[b,f]azepine-5-carboxamide], the “effect on hCav3.2 calcium peak currents (in words)” value in test [1] is given as “dose dependently inhibited”. Also, the “Relative current amplitude (%)” value is on record as 87.58 ± 2.94% in test [1] (25 μM); 76.53 ± 5.48% in test [1] (50 μM); 69.98 ± 4.47% in test [1] (100 μM); 59.47 ± 6.06 % in test [1] (250 μM); 45.66 ± 7.45 % in test [1] (500 μM). The values for the IC50 in test [1] (setting [3]) and in test [1] (setting [4]) were 27.1 µM and 711 µM, respectively. The “Current stimulation (%) α1β2γ2” value on α1β2γ2 GABA receptors (setting [5]) amounted to 104.30 ± 5.02%; on α1β2γ2 GABA receptors (setting [6]), 117.38 ± 4.94%; at α1β2γ2 GABA receptors (setting [7]), 115.68 ± 5.31%; on α1β2γ2 GABA receptors (setting [8]) it was 132.42 ± 5.31 %; at α1β2γ2 GABA receptors (setting [9]) it was 150.26 ± 15.48 %. For the same molecule, the “Current stimulation (%) α2β2γ2” value at α2β2γ2 GABA receptors (setting [5]) is given as 97.94 ± 3.34%; on α2β2γ2 GABA receptors (setting [6]) it was 111.36 ± 2.65%; at α2β2γ2 GABA receptors (setting [7]) it was 109.03 ± 7.61%; on α2β2γ2 GABA receptors (setting [8]) it was 103.60 ± 7.61%; on α2β2γ2 GABA receptors (setting [9]), 104.18 ± 2.66%. The “Current stimulation (%) α5β2γ2” value at α5β2γ2 GABA receptors (setting [5]) is reported as 103.82 ± 1.50%; at α5β2γ2 GABA receptors (setting [6]) it was 103.83 ± 4.53%; at α5β2γ2 GABA receptors (setting [7]) it was 93.59 ± 4.30%; on α5β2γ2 GABA receptors (setting [8]), 80.65 ± 5.86%; at α5β2γ2 GABA receptors (setting [9]), 63.01 ± 4.50 %. Moreover, the “Current stimulation (%) α3β2γ2” value on α3β2γ2 GABA receptors (setting [5]) is 93.32 ± 4.07%; on α3β2γ2 GABA receptors (setting [6]), 112.76 ± 5.40%; at α3β2γ2 GABA receptors (setting [7]), 131.06 ± 9.39%; at α3β2γ2 GABA receptors (setting [8]), 120.27 ± 11.81%; on α3β2γ2 GABA receptors (setting [9]) it was 166.66 ± 21.00 %.

On to `COCC(=O)O[C@]1(CCN(C)CCCc2nc3ccccc3[nH]2)CCc2cc(F)ccc2[C@@H]1C(C)C` [Mibefradil], for which the “effect on hCav3.2 calcium peak currents (in words)” value in test [1] is “dose dependently inhibited”.

Regarding `Cc1ncc2n1-c1ccc(Cl)cc1C(c1ccccc1F)=NC2` [Midazolam], the “Current stimulation (%) α1β2γ2” value at α1β2γ2 GABA receptors (3 μM with GABA at EC5, Ltk cells, Table 1) stood at 184.81 ± 32.93 %.

For `NC(=O)N1c2ccccc2CC(=O)c2ccccc21` [Oxcarbazepine, 10,11-dihydro-10-oxo-5H-dibenz[b,f]azepine-5-carboxamide], the “effect on hCav3.2 currents (in words)” value in test [1] (up to 30 μM) is listed as “devoid of effect”.

Regarding `NC(=O)N1c2ccccc2C[C@@H](O)c2ccccc21` [R-licarbazepine], the “effects upon sub-maximal GABA currents (in words)” value in test [2] is given as “devoid of effects”. For the same molecule, the “effect on hCav3.2 calcium peak currents (in words)” value in test [1] is “dose dependently inhibited”. Besides, the “Relative current amplitude (%)” value stood at 98.42 ± 1.33% in test [1] (0.3 μM); 92.43 ± 1.41% in test [1] (1 μM); 88.21 ± 1.03 % in test [1] (3 μM); 82.92 ± 1.29 % in test [1] (10 μM); 78.21 ± 2.14 % in test [1] (30 μM); 73.86 ± 3.78 % in test [1] (50 μM). In addition, the “Relative current amplitude (%)” value is listed as 71.61 ± 1.68 % in test [1] (100 μM), 64.52 ± 3.05 % in test [1] (250 μM), 58.10 ± 2.74 % in test [1] (500 μM) and 39.37 ± 5.33 % in test [1] (1000 μM). The IC50 in test [1] (setting [3]) was 6.54 µM; in test [1] (setting [4]), 883 µM. In addition, the “Current stimulation (%) α1β2γ2” value on α1β2γ2 GABA receptors (setting [10]) came to 99.85 ± 1.18%; on α1β2γ2 GABA receptors (setting [11]) it was 92.53 ± 4.53%; on α1β2γ2 GABA receptors (setting [12]), 91.73 ± 4.69%; on α1β2γ2 GABA receptors (setting [13]), 95.83 ± 6.63%. Further, the “Current stimulation (%) α2β2γ2” value at α2β2γ2 GABA receptors (setting [10]) amounted to 96.48 ± 2.11%; on α2β2γ2 GABA receptors (setting [11]), 97.03 ± 2.27%; at α2β2γ2 GABA receptors (setting [12]) it was 93.79 ± 3.09%; on α2β2γ2 GABA receptors (setting [13]), 87.75 ± 1.94 %. Besides, the “Current stimulation (%) α5β2γ2” value was found to be 96.13 ± 0.57% on α5β2γ2 GABA receptors (setting [10]), 94.09 ± 1.27% at α5β2γ2 GABA receptors (setting [11]), 97.24 ± 1.58% at α5β2γ2 GABA receptors (setting [12]) and 92.25 ± 1.29% on α5β2γ2 GABA receptors (setting [13]). For the same molecule, the “Current stimulation (%) α3β2γ2” value on α3β2γ2 GABA receptors (setting [10]) amounted to 99.53 ± 2.65%; at α3β2γ2 GABA receptors (setting [11]), 100.38 ± 1.56%; at α3β2γ2 GABA receptors (setting [12]), 102.94 ± 3.34%; at α3β2γ2 GABA receptors (setting [13]), 97.35 ± 2.91%.

For the molecule `CCCC(CCC)C(=O)O` [valproic acid], in test [1] (1 mM, n=8 cells), the “blocked calcium peak currents by” value is listed as 66.15±2.05.
